Results from PMC12142043, “Cell-based high-content approach for SARS-CoV-2 neutralization identifies unique monoclonal antibodies and PI3K pathway inhibitors” (Frontiers in Cell and Developmental Biology, 2025).
Where two headings read alike, the source gives them in different places.

Experiments:
Calu-3 cells = assay: cells; details: Homo sapiens, Calu-3, read-out: EC50 (μM) Cell count
[1] = system: SARS-CoV-2 (USA-WA1/2020) in Calu-3 cells; assay: microbe, parasite or virus in culture; assay type: cell-based; details: for EC50: Severe acute respiratory syndrome coronavirus 2, Calu-3, 48 h, read-out: EC50 (μM) dsRNA
[2] = system: SARS-CoV-2 (USA-WA1/2020) in Calu-3 cells; assay type: cell-based
[3] = […], above 30 μM reported as >30
[4] = high dose (10 µM), Calu-3, 48 h
[5] = low dose (100 nM), Calu-3, 48 h
[6] = fold: cell count EC50 over dsRNA EC50

Compound	dsRNA signal, AU High [2, 4]	dsRNA signal, AU Low [2, 5]	other results
COCCOc1cnc2ccn([C@H](C)c3nnc4c(F)cc(-c5cnn(C)c5)cn34)c(=O)c2c1 [AMG 337, reference compound]	6788.1 AU	33845.4 AU	EC50 (Calu-3 cells): > 30 µM; EC50 (μM) dsRNA [1, 3]: None
O=C(NC1CCNCC1)c1[nH]ncc1NC(=O)c1c(Cl)cccc1Cl [AT7519]	23488.0 AU	46607.1 AU	EC50 (Calu-3 cells): 0.646 µM; EC50 [1, 3]: 1.23 µM; Selectivity index [1, 6]: 0.525
CC[C@H](Nc1ncnc2[nH]cnc12)c1nc2cccc(F)c2c(=O)n1-c1ccccc1 [CAL-101]	57616.6 AU	3708.3 AU	EC50 (Calu-3 cells): > 30 µM; EC50 [1, 3]: 0.0521 µM; Selectivity index [1, 6]: >575
N#CCNC(=O)c1ccc(-c2ccnc(Nc3ccc(N4CCOCC4)cc3)n2)cc1 [CYT387]	36485.3 AU	15837.3 AU	EC50 (Calu-3 cells): 2.41 µM; EC50 [1, 3]: 0.0276 µM; Selectivity index [1, 6]: 87.486
O=S(=O)(c1cccc2cnccc12)N1CCCNCC1 [Fasudil]	–	–	EC50 (Calu-3 cells): 1.22 µM; EC50 [1, 3]: 0.0124 µM; Selectivity index [1, 6]: 98.072
CC(C)NC[C@@H](C(=O)N1CCN(c2ncnc3c2[C@H](C)C[C@H]3O)CC1)c1ccc(Cl)cc1 [GDC-0068, reference compound]	10110.1 AU	18551.4 AU	EC50 (Calu-3 cells): > 30 µM; EC50 [1, 3]: > 30 µM
O=c1c(-c2ccc(O)cc2)coc2cc(O)cc(O)c12 [Genistein, reference compound]	5526.1 AU	19461.3 AU	EC50 (Calu-3 cells): > 30 µM; EC50 (μM) dsRNA [1, 3]: None
O=C1Nc2ccccc2/C1=C1/Nc2ccccc2C1=O [Indirubin]	–	–	EC50 (Calu-3 cells): > 30 µM; Selectivity index [1]: >26; EC50 [1]: 1.14 µM
Cc1ccc(F)c(NC(=O)Nc2ccc(-c3cccc4[nH]nc(N)c34)cc2)c1 [Linifanib]	6252.9 AU	21480.2 AU	EC50 (Calu-3 cells): > 30 µM; EC50 [1, 3]: 20.5 µM; Selectivity index [1, 6]: >1.4
C[C@@H](NC(=O)c1ncnc(N)c1Cl)c1ncc(C(=O)Nc2cc(C(F)(F)F)c(Cl)cn2)s1 [MLN 2480]	–	–	EC50 (Calu-3 cells): > 30 µM; EC50 [1, 3]: 0.0998 µM; Selectivity index [1, 6]: >300
CN1CCN(c2ccc(OC(F)(F)F)c(Nc3ncc4c(n3)-c3c(c(C(N)=O)nn3CCO)CC4)c2)CC1 [NMS-1286937]	5848.8 AU	38547.7 AU	EC50 (Calu-3 cells): 0.0916 µM; EC50 [1, 3]: 17.8 µM; Selectivity index [1, 6]: 0.005
CNC(=O)c1cc(Oc2ccc(NC(=O)Nc3ccc(Cl)c(C(F)(F)F)c3)c(F)c2)ccn1 [Regorafenib monohydrate]	7085.4 AU	14285.8 AU	EC50 (Calu-3 cells): > 30 µM; EC50 [1, 3]: 6.46 µM; Selectivity index [1, 6]: >4
CN1CCN(Cc2ccc(-c3cnc4[nH]cc(-c5ccc6[nH]ccc6c5)c4c3)cc2)CC1 [URMC-099]	20784.2 AU	7905.7 AU	–
O.O.O.O=C(O)c1ncccc1O.O=C(O)c1ncccc1O.[O]=[V] [VO-Ohpic trihydrate]	28838.2 AU	7631.3 AU	–
c1cncc(CN2CCC(n3ncc4c(N5CCOCC5)nc(-c5ccc6[nH]ccc6c5)nc43)CC2)c1 [WAY-600]	1003.4 AU	67106.4 AU	–
COc1cc2ncnc(Nc3ccc(O)c(Br)c3)c2cc1OC [WHI-P154]	5163.1 AU	0.0 AU	–
CNC(=O)Nc1ccc(-c2nc(N3CC4CCC(C3)O4)c3cnn(C4CCC5(CC4)OCCO5)c3n2)cc1 [WYE-125132 (WYE-132)]	4894.7 AU	21738.1 AU	–
C=CC(=O)Nc1cccc(Oc2nc(Nc3ccc(N4CCN(C)CC4)cc3)ncc2Cl)c1 [WZ3146]	23148.6 AU	16337.5 AU	–
CCC(=O)Nc1cccc(Oc2nc(Nc3ccc(N4CCN(C)CC4)cc3OC)ncc2Cl)c1 [WZ4003]	30589.4 AU	38446.0 AU	–
COc1cc(O)c2c(c1)oc(=O)c1c3cc(O)c(O)cc3oc21 [Wedelolactone]	9001.4 AU	16105.5 AU	–
COc1ccc(Cl)c(Nc2nc3ccccc3nc2NS(=O)(=O)c2cccc(NC(=O)C(C)(C)N)c2)c1 [XL147]	6847.8 AU	47539.1 AU	–

Compound	dsRNA signal, AU High [2, 4]	dsRNA signal, AU Low [2, 5]	other results
Cc1c(C(=O)N2CCOc3ccc(-c4ccc(N)nc4)cc3C2)ccc(S(C)(=O)=O)c1F [XL388]	5203.5 AU	16443.4 AU	–
CCOc1cc(N2CCC(O)CC2)ccc1Nc1ncc2c(n1)N(C)c1ccccc1C(=O)N2C [XMD8-92]	359.5 AU	30524.1 AU	–
C[C@@H](N)[C@H]1CC[C@H](C(=O)Nc2ccncc2)CC1 [Y-27632]	3508.5 AU	46665.7 AU	–
Cc1cc(C)nc(NS(=O)(=O)c2ccc(NC(=S)NC(=O)COc3ccc(Br)cc3Cl)cc2)n1 [ZCL278]	9541.3 AU	41590.0 AU	–
CC(C)N(CCC(=O)c1ccc2ccccc2c1)Cc1ccccc1.Cl [ZM 39923 HCl]	21395.1 AU	2858.2 AU	–
FC(F)c1nc2ccccc2n1-c1nc(N2CCOCC2)nc(N2CCOCC2)n1 [ZSTK474]	6069.9 AU	23073.5 AU	–
CO[C@H]1C[C@@H]2CC[C@@H](C)[C@@](O)(O2)C(=O)C(=O)N2CCCC[C@H]2C(=O)O[C@H]([C@H](C)C[C@@H]2CC[C@H](n3cnnn3)[C@H](OC)C2)CC(=O)[C@H](C)/C=C(\C)[C@@H](O)[C@@H](OC)C(=O)[C@H](C)C[C@H](C)/C=C/C=C/C=C/1C [Zotarolimus(ABT-578)]	11435.6 AU	1864.8 AU	–
AG-18	29672.3 AU	14434.9 AU	–
AZD4547	14827.8 AU	3634.0 AU	–
Anacardic acid	12779.5 AU	44703.4 AU	–
CHIR-98014	–	–	dsRNA signal, AU High [2]: 63043.9; dsRNA signal, AU Low [2]: 37241.6
Ginkgolide C	4330.9 AU	14963.6 AU	–
HG-10-102-01	14367.4 AU	32713.5 AU	–
IC-87114	0.0 AU	60540.6 AU	–
KN-92	8269.0 AU	30018.5 AU	–
KN-93	14156.8 AU	6603.8 AU	–
SC 79	17618.8 AU	5138.7 AU	–
TA 01	672.4 AU	13985.5 AU	–
Telatinib (BAY 57-9352)	46565.4 AU	19646.6 AU	–
VX-11e	6059.4 AU	11825.4 AU	–
kb NB 142-70	958.0 AU	2847.9 AU	–
